Values quoted from earlier work as cited in patent US20060073479A1 (priority 2001, published 2006).

Key:
[1] = tested on: patients treated with paclitaxel; details: in vivo
CYP2C8 = target: T1, CYP2C8 (Homo sapiens, UniProt P10632); details: in vitro studies
T1 sequence (P10632 1-490): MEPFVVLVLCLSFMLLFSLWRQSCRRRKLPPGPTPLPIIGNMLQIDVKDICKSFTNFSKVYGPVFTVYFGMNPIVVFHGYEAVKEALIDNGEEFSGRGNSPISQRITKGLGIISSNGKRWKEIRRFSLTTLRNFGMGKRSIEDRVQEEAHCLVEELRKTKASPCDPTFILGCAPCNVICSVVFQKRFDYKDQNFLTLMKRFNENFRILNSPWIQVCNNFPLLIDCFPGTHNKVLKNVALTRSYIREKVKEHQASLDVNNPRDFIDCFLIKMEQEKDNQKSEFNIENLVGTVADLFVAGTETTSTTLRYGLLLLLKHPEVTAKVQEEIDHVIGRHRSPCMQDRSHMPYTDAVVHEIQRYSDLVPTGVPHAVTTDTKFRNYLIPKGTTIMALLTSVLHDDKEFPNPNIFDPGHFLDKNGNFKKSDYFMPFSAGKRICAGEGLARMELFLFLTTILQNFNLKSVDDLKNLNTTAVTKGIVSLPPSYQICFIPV

CYP3A4 = CYP3A4 (Homo sapiens, UniProt P08684); details: in vitro studies
[2] = urine and feces

Chain of CYP3A4 (P08684 whole entry): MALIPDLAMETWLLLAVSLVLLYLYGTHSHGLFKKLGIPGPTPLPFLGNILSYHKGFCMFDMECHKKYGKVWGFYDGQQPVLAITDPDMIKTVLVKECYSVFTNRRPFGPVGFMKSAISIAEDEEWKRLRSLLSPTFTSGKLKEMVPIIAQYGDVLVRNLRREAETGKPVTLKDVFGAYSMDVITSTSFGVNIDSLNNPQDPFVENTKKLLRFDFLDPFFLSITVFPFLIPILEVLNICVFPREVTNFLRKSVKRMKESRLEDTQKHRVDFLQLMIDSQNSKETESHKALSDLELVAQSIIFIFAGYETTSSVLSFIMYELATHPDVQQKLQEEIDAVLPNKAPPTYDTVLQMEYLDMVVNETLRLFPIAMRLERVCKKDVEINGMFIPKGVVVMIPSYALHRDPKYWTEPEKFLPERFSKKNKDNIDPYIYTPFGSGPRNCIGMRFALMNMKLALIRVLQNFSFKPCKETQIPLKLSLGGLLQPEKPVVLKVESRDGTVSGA

| Compound | fraction of treated patients refractory to beneficial effect [1] | metabolism by CYP2C8 (CYP2C8) | metabolism by CYP3A4 (CYP3A4) | metabolism / excretion in words [2] |
| --- | --- | --- | --- | --- |
| CC(=O)O[C@H]1C(=O)[C@@]2(C)[C@H]([C@H](OC(=O)c3ccccc3)[C@]3(O)C[C@H](OC(=O)[C@H](O)[C@@H](NC(=O)c4ccccc4)c4ccccc4)C(C)=C1C3(C)C)[C@]1(OC(C)=O)CO[C@@H]1C[C@@H]2O [paclitaxel] | about one-third | metabolized by CYP2C8 | to a lesser extent by CYP3A4 |  |
| N.N.O=C([O-])C1(C(=O)[O-])CCC1.[Pt+2] [carboplatin] |  |  |  | relatively stable and excreted largely in unchanged form in the urine |
